Experimental data published in US10934326B2, “Peripheral modifications on pocket-redesigned vancomycin analogs synergistically improve antimicrobial potency and durability” (priority 2016, dated 2021).
Converted amounts (≈) assume the structure as drawn. “Also recorded” adds a separate entry of the source. Where two headings read alike, the source gives them in different places.

Assays:
[1] = test system: Enterococcus faecium (VanA VRE, ATCC BAA-2317); settings: previously reported data; cited from earlier work
[2] = test system: VanA VRE (E. faecalis BM 4166 and E. faecium ATCC BAA-2317); assay: Cell wall biosynthesis inhibition assay (accumulation of UDPMurNAc-pp 19); type: cell-based, Enterococcus faecalis; Enterococcus faecium; settings: 35 μg/mL, tetracycline pretreated VanA VRE, 30 minutes, 37° C.
Text: The inhibition of bacterial cell wall synthesis was established in an assay that quantitates the accumulation of the peptidoglycan precursor UDP-N-acetyl-muramyl-depsipentapeptide (Compound 19, UDPMurNAc-pp), resulting from inhibited cell wall incorporation following antibiotic treatment. […] This procedure was reduced in scale and modified to enlist reverse-phase HPLC separation, UV detection, and calibration curve determination of the amount of isolated 19, permitting use with limited sample sizes. A larger scale isolation and full characterization of 19 provided the material needed to establish a linear calibration curve.
The bacterial suspension was heated at 100° C. for 15 minutes to release cytosolic 19. The entire supernatant was analyzed by semi-preparative reverse-phase HPLC with a single injection and the amount of 19 was quantitated with use of the calibration curve.
Cultures of vancomycin-resistant Enterococcus faecalis (VanA VRE, BM4166) and Enterococcus faecium (VanA VRE, ATCC BAA-2317) were inoculated and grown in an orbital shaker at 37° C. in 100% brain-heart infusion broth for 12 hours. The above bacterial solution was subjected to a subculture to obtain fresh mid-log phase bacterial cells (total volume of bacterial suspension=5 mL, incubation time=6 hours, OD600=0.6). […] Vancomycin analogues were added and the mixture was incubated at 37° C. for a further 30 minutes.
After the bacteria were harvested (3000 rpm, 4° C., 20 minutes), this bacterial precipitate was washed and resuspended in 5 mM glucose and 5 mM HEPES buffer (500 μL, 1:1, pH=7.2). This bacterial suspension was heated at 100° C. for 15 minutes and centrifuged (13000 rpm, 25° C., 10 minutes). […] [*****Allen et al., Antimicrob. Agents Chemother. 1996, 40(10):2356-2362]; Liu et al., J. Am. Chem. Soc. 2001, 123:9916-9917.] The amount of UDP Mur N-Ac pentapeptide (19) was quantified by use of calibration curves for E. faecalis BM4166, and for E. faecium ATCC BAA-2317 based on the area under the curve (AUC).

[3] = test system: Enterococcus faecium (VanA VRE, ATCC BAA-2317); assay: In vitro antimicrobial assay (MIC), VanA E. faecium; type: cell-based; settings: for antibiotic susceptibility profile of the strain: VanA E. faecium ATCC BAA-2317
Text: (§1) One day before a study was run, fresh cultures of vancomycin-sensitive Staphylococcus aureus (VSSA strain ATCC 25923), methicillin and oxacillin-resistant Staphylococcus aureus subsp. aureus (MRSA strain ATCC 43300), vancomycin-resistant Enterococcus faecalis (VanA VRE, BM4166), Enterococcus faecium (VanA VRE, ATCC BAA-2317), vancomycin-resistant Enterococcus faecalis (VanB VRE, strain ATCC 51299), Escherichia coli (ATCC 25922), Acinetobacter baumannii (ATCC BAA-1710), Pseudomonas aeruginosa (ATCC 15442), Klebsiella pneumoniae (ATCC 700603) were inoculated and grown in an orbital shaker at 37° C. in 100% Mueller-Hinton broth (VSSA, MRSA and VanB VRE), 100% brain-heart infusion broth (VanA VRE, A. baumannii and K. pneumoniae) or 100% Luria broth (E. coli and P. aeruginosa). After 24 hours, the bacterial stock solutions were serially diluted with the culture medium (10% Mueller-Hinton broth for VSSA, MRSA and VanB VRE or 10% brain-heart infusion broth for VanA VRE A. baumannii and K. pneumoniae or 10% Luria Broth for E. coli and P. aeruginosa) to achieve a turbidity equivalent to a 1:100 dilution of a 0.5 M McFarland solution. This diluted bacterial stock solution was then inoculated in a 96-well V-shaped glass coated microtiter plate, supplemented with serial diluted aliquots of the antibiotic solution in DMSO (4 μL), to achieve a total assay volume of 0.1 mL. The plate was then incubated at 37° C. for 18 hours, after which minimal inhibitory concentrations (MICs) were determined by monitoring the cell growth (observed as a pellet) in the wells.
(§2) The lowest concentration of antibiotic (in μg/mL) capable of eliminating cell growth in the wells is the reported MIC value. The reported MIC values for the vancomycin analogues were determined against vancomycin as a standard in the first well.*
(§3) [*Clinical and Laboratory Standards Institute. Methods for Dilution Antimicrobial Susceptibility Tests for Bacteria That Grow Aerobically; Approved Standard, 7th ed.; CLSI document M07-A8; Clinical and Laboratory Standards Institute: Wayne, Pa., 2009.]

[4] = test system: vancomycin-resistant Enterococcus faecalis (VanA VRE, BM4166); assay: In vitro antimicrobial assay (MIC), VanA E. faecalis; type: cell-based
Text: as §1, §2, §3

[5] = test system: VanA VRE (E. faecalis BM 4166 and E. faecium ATCC BAA-2317); assay: Antimicrobial activity against VanA VRE (both strains); type: cell-based, Enterococcus faecalis; Enterococcus faecium
Text: as §1, §2

[6] = test system: vancomycin-resistant Enterococcus faecalis (VanA VRE, BM4166); settings: BM 4166; previously reported data; cited from earlier work
[7] = test system: methicillin and oxacillin-resistant Staphylococcus aureus subsp. aureus (MRSA strain ATCC 43300); settings: previously reported data; cited from earlier work
[8] = test system: vancomycin-resistant Enterococcus faecalis (VanB VRE, strain ATCC 51299); settings: previously reported data; cited from earlier work
[9] = test system: vancomycin-sensitive Staphylococcus aureus (VSSA strain ATCC 25923); settings: previously reported data; cited from earlier work
[10] = test system: VanA VRE (E. faecalis BM 4166 and E. faecium ATCC BAA-2317); assay: Cell wall permeability assay (propidium iodide uptake); type: cell-based, Enterococcus faecalis; Enterococcus faecium; settings: 10 μM compound
Text: The effect of the compounds on cell membrane permeability was examined by measuring cytoplasmic membrane uptake of the fluorescent probe propidium iodide in the same VanA vancomycin-resistant E. faecalis (BM 4166) and E. faecium (ATCC BAA-2317) strains. This fluorescent probe only enters cells with permeabilized cell membranes and is detected by the emission of fluorescence upon intracellular nucleic acid binding [Boulos et al., J Microbiol Methods 1999, 37(1):77-86].
Fresh, mid-log phase VanA VRE in pH 7.2 buffer at 25° C. were preincubated with propidium iodide (10 μM) for 5 minutes before the test compounds were added, monitoring the fluorescence emission at 617 nm (excitation at 535 nm) over time, both pre (5 minutes) and post (15 minutes) compound addition. Rapid and sustained increases in fluorescence intensity are observed immediately upon addition of test compounds that induce bacterial cell membrane permeability.
One day before a study was run, cultures of vancomycin-resistant Enterococcus faecalis (VanA VRE, BM4166) and Enterococcus faecium (VanA VRE, ATCC BAA-2317), were inoculated and grown in an orbital shaker at 37° C. in 100% brain-heart infusion broth for 12 hours. The above bacterial solution was subjected to a subculture to obtain fresh mid-log phase bacterial cells (total volume of bacterial suspension=7 mL, incubation time=6 hours, OD600=0.6). After the cultured bacteria were harvested (3000 rpm, 4° C., 20 minutes), the white bacterial precipitate was washed and resuspended in 5 mM glucose and 5 mM HEPES buffer (1:1, 500 μL, pH=7.2).
This bacterial suspension (130 μL) was charged into a 96-well black plate with a clear bottom (Corning 3650). The propidium iodide dye (10 μL, 150 μM DMSO solution) was added to the above suspension and the fluorescence was monitored at 25° C. for 5 minutes at 30 second intervals using a microplate reader (Molecular Devices®, Max Gemini EX) at an excitation wavelength of 535 nm and an emission wavelength of 617 nm. The test compound (150 μM, 10 μL) was added to the cell suspension and the fluorescence was monitored at 25° C. for an additional 15 minutes.

[11] = test system: VanA VRE (E. faecalis BM4166 and E. faecium ATCC BAA-2317); assay: Resistance development study (serial passaging at 0.5×MIC); type: cell-based, Enterococcus faecalis; Enterococcus faecium; settings: 0.5×MIC serial exposure, MICs monitored daily
Method: However, an additional and even more important feature of the expression of multiple independent mechanisms of action is a mechanism's impact on the rate at which bacterial resistance may emerge.
The MICs of the vancomycin analogues against vancomycin-resistant Enterococcus faecalis (VanA VRE, BM4166) and Enterococcus faecium (VanA VRE, ATCC BAA-2317) were determined. […] A new MIC assay was performed with the same protocol. This process was repeated for 50 passages, and the fold increase in MIC was determined at each passage. [****Pollard et al., J. Antimicrob. Chemother. 2012, 67:2665-2672.]

SMILES	Antimicrobial Activity, MIC, VanA E. faecium [1] [µg/mL]	inhibition of bacterial cell wall synthesis (accumulation of 19) [2]	Antimicrobial Activity, MIC, VanA E. faecalis [6] [µg/mL]	Antimicrobial Activity, MIC, MRSA S. aureus [7] [µg/mL]	Antimicrobial Activity, MIC, VanB E. faecalis [8] [µg/mL]	Antimicrobial Activity, MIC, sensitive S. aureus [9] [µg/mL]	antibiotic susceptibility profile of the strain [3]	emergence of resistance on serial passaging [11]	also measured
CNC(CC(C)C)C(=O)NC1C(=O)NC(CC(N)=O)C(=O)NC2CNC3C(=O)NC(C(=O)NC(C(=O)O)c4cc(O)cc(O)c4-c4cc3ccc4O)C(O)c3ccc(c(Cl)c3)Oc3cc2cc(c3OC2OC(CO)C(O)C(O)C2OC2CC(C)(N)C(O)C(C)O2)Oc2ccc(cc2Cl)[C@@H]1O (some centres unmarked) [Compound 4, [Ψ[CH2NH] Tpg^4]vancomycin]	31	inhibits bacterial cell wall biosynthesis; also recorded: equally active	31	–	–	–	–	–	MIC ([3]; Enterococcus faecium, read-out: Antimicrobial Activity, MIC, VanA E. faecium): 31 µg/mL (≈ 21.6 µM); MIC ([4]; Enterococcus faecalis, VRE, read-out: Antimicrobial Activity, MIC, VanA E. faecalis): 31 µg/mL (≈ 21.6 µM); MIC ([5]; Enterococcus, read-out: MIC against VanA VRE): 31 µg/mL (≈ 21.6 µM)
CN[C@H](CC(C)C)C(=O)N[C@H]1C(=O)N[C@@H](CC(N)=O)C(=O)N[C@H]2C(=N)N[C@@H]3C(=O)N[C@H](C(=O)N[C@H](C(=O)O)c4cc(O)cc(O)c4-c4cc3ccc4O)[C@H](O)c3ccc(c(Cl)c3)Oc3cc2cc(c3OC2OC(CO)C(O)[C@H](O)[C@@H]2O[C@H]2CC(C)(NCc3ccc(-c4ccc(Cl)cc4)cc3)[C@H](O)[C@H](C)O2)Oc2ccc(cc2Cl)[C@H]1O (some centres unmarked) [Compound 7]	0.005	–	0.005	0.06	0.06	0.03	–	–	–
CCCCCCCCCCCCCC[N+](C)(C)CCCNC(=O)[C@H]1NC(=O)[C@H]2NC(=O)[C@@H](NC[C@@H]3NC(=O)[C@H](CC(N)=O)NC(=O)[C@H](NC(=O)[C@@H](CC(C)C)NC)[C@H](O)c4ccc(c(Cl)c4)Oc4cc3cc(c4OC3OC(CO)C(O)[C@H](O)[C@@H]3O[C@H]3CC(C)(N)[C@H](O)[C@H](C)O3)Oc3ccc(cc3Cl)[C@H]2O)c2ccc(O)c(c2)-c2c(O)cc(O)cc21 (some centres unmarked) [Compound 13]	–	equally active	–	–	–	–	–	–	induced cell membrane permeability (propidium uptake) [10]: produced pronounced cell membrane permeability immediately upon addition; Antimicrobial Activity, MIC, VanA E. faecium ([3]; ATCC BAA-2317): 0.16 µg/mL; Antimicrobial Activity, MIC, VanA E. faecalis ([4]; BM 4166): 0.16 µg/mL; MIC against VanA VRE ([5]; both VanA VRE strains): 0.16 µg/mL; fold more potent than pocket analog 4 against VanA VRE ([5]; relative to Compound 4): 200 fold; fold more potent than C14-vancomycin (12) against VanA VRE ([5]; relative to Compound 12): > 10 fold; fold more potent than vancomycin against VanA VRE ([5]; relative to vancomycin (1)): > 1000 fold
CN(C)c1cc(NC(=O)CNC(C)(C)C)c(O)c2c1C[C@H]1C[C@H]3[C@H](N(C)C)C(O)=C(C(N)=O)C(=O)[C@@]3(O)C(O)=C1C2=O [tigecycline]	–	–	–	–	–	–	sensitive	arises much faster and is much more pronounced; also recorded: arise much faster and was more pronounced	–
CN[C@H](CC(C)C)C(=O)N[C@H]1C(=O)N[C@@H](CC(N)=O)C(=O)N[C@H]2C(=S)N[C@@H]3C(=O)N[C@H](C(=O)N[C@H](C(=O)O)c4cc(O)cc(O)c4-c4cc3ccc4O)[C@H](O)c3ccc(c(Cl)c3)Oc3cc2cc(c3OC2OC(CO)C(O)[C@H](O)[C@@H]2O[C@H]2CC(C)(N)[C@H](O)[C@H](C)O2)Oc2ccc(cc2Cl)[C@H]1O (some centres unmarked) [Compound 2]	>32	do not effectively inhibit bacterial cell wall synthesis	>32	>32	>32	>32	–	–	–
CC(=O)NC[C@H]1CN(c2ccc(N3CCOCC3)c(F)c2)C(=O)O1 [linezolid]	–	–	–	–	–	–	insensitive	arises much faster and is much more pronounced; also recorded: arise much faster and was more pronounced	–
